Positions of bridges follow the written chain, without caps; N, C: chain ends. No end group written: not given here.
Tested on: HK-2 cells
Test: Smad1 phosphorylation and nuclear translocation in HK-2 cells (immunofluorescence)
Type: cell-based, human
Settings: 1.3 uM and 33 uM compound
Experimental: Phosphorylation and nuclear translocation of Smads occurs following the activation of Type I and Type II receptors and subsequent signal transduction to intracellular Smad targets. Phosphorylation and nuclear translocation of R-Smad in HK-2, vascular endothelial, human prostate or other cells by TDFRP compounds is assayed by immuno-fluorescent microscopy methods, using anti-phospho Smad 1/5 antibodies according to the procedure of H Aoki, M Fujii, T Imamura, K Yagi, K Takehara, M Kato and K Miyazono. J. of Cell Sci. 114, 1483-1489, 2001) and by Western blot analysis (FIGS. 2, 3, 18, 2X).
For example, HK-2, human proximal tubule cells are incubated in culture medium alone or exposed TDFRP or control compounds for one hour ten minutes at 37 degree C. BMP-7 served as a positive control in the assay. Each well is rinsed with 1 mL prewarmed medium. 1 mL per well of cold Acetone/Methanol mix (1:1) is added and incubated for 2 minutes at room temperature to fix the cells. Wells are washed with 1 mL of cold PBS and blocked with 1 mL blocking buffer (3% BSA, 1% goat serum in PBS) for 7 minutes. Wells are aspirated without disturbing the cells, and 500 uL/well primary antibody is added (anti-phospho-Smad 1) at 0.056 ug/mL concentration in 3% BSA in PBS (no goat serum). Cells are incubated overnight at 4 degrees C. […]

For “CYFDDSSNVLCKKYRS (disulfide 1-11 (inferred); not fully specified) [SEQ ID NO:45]”, the “Smad1 phosphorylation, activation and translocation in the nucleus” value was “Smad1 phosphorylation, activation and translocation in the nucleus”.

— US8911953B2, “TDF-related compounds and analogs thereof, analogs and bioactive fragments” (Thrasos Innovation, Inc., priority 2005, dated 2014)
